Laboratory results: article PMC12432127, “Assessing the potential of bacterial signal peptides for radiopharmaceutical applications” (Scientific Reports, 2025)
Values joined by “and” are separate entries in the source; they are usually repeats but may differ in a detail not shown here. Equal entries are not always repeated. Residues, ends and D or L forms follow the SMILES beside them. Groups on a side chain read outwards from the residue. *: point of attachment. DOTA = O=C(O)CN1CCN(CC(=O)O)CCN(CC(=O)*)CCN(CC(=O)O)CC1; Ahx = NCCCCCC(=O)O; For = O=C*

How the values were obtained:
[1] = Stability in human plasma (radio-HPLC); assay type: in vitro ADME; settings: human plasma, 37 °C
Experimental: The radiolabelled compound (50 µL) was added to male human AB plasma (500 µL, Sigma Aldrich, USA, male AB) and incubated at 37 °C. Samples of 100 µL were taken at selected time points. The plasma proteins were precipitated with acetonitrile (-20 °C) and the precipitate was centrifuged for 1 min at 1500 rpm. The supernatant was analyzed by analytical radio-HPLC.

FPR1 = biological target: T1, FPR1 (Homo sapiens, UniProt P21462); assay: High-throughput calcium imaging (FLIPR), FPR1 transfected HEK293T cells; assay type: cell-based; settings: for Calicum signal (dF/F0): FPR1-HEK; for EC50: FPR1 transfected HEK293T cells, peak calcium response, read-out: EC50 Ca2+ mobilization
T1 construct: expressed in transfected cells; host or cells: HEK293T (transient, jetPEI)
T1 sequence (P21462 1-350): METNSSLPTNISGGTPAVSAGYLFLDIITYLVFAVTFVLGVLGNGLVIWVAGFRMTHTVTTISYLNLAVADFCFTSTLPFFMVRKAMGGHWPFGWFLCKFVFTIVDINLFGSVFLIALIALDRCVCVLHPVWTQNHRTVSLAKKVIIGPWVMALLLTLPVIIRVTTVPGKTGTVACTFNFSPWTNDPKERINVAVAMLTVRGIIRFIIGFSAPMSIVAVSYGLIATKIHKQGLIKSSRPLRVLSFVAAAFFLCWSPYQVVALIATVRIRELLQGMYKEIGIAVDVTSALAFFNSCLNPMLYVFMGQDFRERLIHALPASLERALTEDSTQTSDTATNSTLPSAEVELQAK
Experimental: Cell transfection was performed approximately 24 h after seeding the cells, when they reached about 70% confluence. Transfection was carried out using jetPEI™ (Polyplus) according to the following protocol: 0.25 µg DNA was diluted in 10 µL NaCl (150 mM). 0.5 µL of jetPEI™ solution in 10 µL NaCl was mixed with the DNA solution and incubated at RT for 15–30 min. After incubation, 20 µL of the jetPEI™/DNA mixture was added dropwise to the cells, which were then placed in the cell culture incubator at 37 °C and 5% CO2. After 18 to 24 h of transfection, the medium was replaced, and 100 µL per well was added, then placed back in the incubator.
(§1) Automated high-throughput Ca^2+ measurements using a fluorescence imaging plate reader (FLIPR, Molecular Devices) were performed. Briefly, […] were seeded in 96-well plates (~ 50,000 cells/well) one day before the experiments and incubated at 37 °C. HEK293T cells were co-transfected with the receptor or mock and the G protein Gα16 for 48 h. On the day of the experiments, the medium was removed, and the cells were loaded with a loading solution consisting of 2 µM Calbryte dye in C1 buffer (Calbryte 520AM, AAT Bioquest 20651) 50 µL per well, for at least 2 h at RT in the dark. After 2 h of loading with the fluorescent dye, the solution was removed, the plate was washed three times using an ELX50 washer (BioTek), and the intracellular release of calcium was measured using FLIPR. A Ca^2+ response was defined as an increase in the excitation ratio (340 nm/380 nm) that was at least four times higher than the mean baseline noise after bath application.
(§2) The results are expressed as the means ± standard deviations of the number of the indicated determinations. Calcium measurement experiments were routinely performed as triplicates and averaged over at least three independent transfections. Response amplitudes (F/F0) were calculated by dividing maximal fluorescence change after ligand application by baseline fluorescence. Maximal amplitudes were set to 100%, and curves were calculated with Graph Pad Prism Version 10.1 (GraphPad Software, Boston, MA, USA). S.D. values were calculated as averages from independently obtained EC50 values using the STDEV. Data derived from experiments were analyzed by two-way ANOVA. P < 0.05 was accepted as significant.

U87-MG cells = assay: Calcium imaging (FLIPR) in U87-MG cells; assay type: cell-based, human; settings: for EC50: U87-MG cells, read-out: EC50 Ca2+ flux; for Calicum signal (dF/F0): U87 cells
Experimental: as §1, §2

[2] = Log Concentration (M) -6,5, single replicate values, listed as f-MVPIK(Ahx-DOTA-Ga)I
[3] = Log Concentration (M) -6, single replicate values, listed as f-MVPIK(Ahx-DOTA-Ga)I
[4] = Log Concentration (M) -7,5, single replicate values, listed as f-MVPIK(Ahx-DOTA-Ga)I
[5] = Log Concentration (M) -7, single replicate values, listed as f-MVPIK(Ahx-DOTA-Ga)I
[6] = Log Concentration (M) -8,5, single replicate values, listed as f-MVPIK(Ahx-DOTA-Ga)I
[7] = Log Concentration (M) -8, single replicate values, listed as f-MVPIK(Ahx-DOTA-Ga)I
[8] = Log Concentration (M) -9, single replicate values, listed as f-MVPIK(Ahx-DOTA-Ga)I
[9] = Log Concentration (M) -6,5, single replicate values, listed as f-MVPIK(Ahx-DOTA-Lu)I
[10] = Log Concentration (M) -6, single replicate values, listed as f-MVPIK(Ahx-DOTA-Lu)I
[11] = Log Concentration (M) -7,5, single replicate values, listed as f-MVPIK(Ahx-DOTA-Lu)I
[12] = Log Concentration (M) -7, single replicate values, listed as f-MVPIK(Ahx-DOTA-Lu)I
[13] = Log Concentration (M) -8,5, single replicate values, listed as f-MVPIK(Ahx-DOTA-Lu)I
[14] = Log Concentration (M) -8, single replicate values, listed as f-MVPIK(Ahx-DOTA-Lu)I
[15] = Log Concentration (M) -9, single replicate values, listed as f-MVPIK(Ahx-DOTA-Lu)I

In the case of `CC[C@H](C)[C@H](NC(=O)[C@H](CCCCNC(=O)CCCCCNC(=O)CN1CCN(CC(=O)O)CCN(CC(=O)O)CCN(CC(=O)O)CC1)NC(=O)[C@@H](NC(=O)[C@@H]1CCCN1C(=O)[C@@H](NC(=O)[C@H](CCSC)NC=O)C(C)C)[C@@H](C)CC)C(=O)O` [[^68Ga]Ga-f-MVPIK(Ahx-DOTA)I, metal not drawn] (For-MVPIK([Ahx-DOTA])I-OH), the “time stable in human plasma” value [1] is reported as “at least 4 h”.
For `CC[C@H](C)[C@H](NC(=O)[C@H](CCCCNC(=O)CCCCCNC(=O)CN1CCN(CC(=O)O)CCN(CC(=O)O)CCN(CC(=O)O)CC1)NC(=O)[C@@H](NC(=O)[C@@H]1CCCN1C(=O)[C@@H](NC(=O)[C@H](CCSC)NC=O)C(C)C)[C@@H](C)CC)C(=O)O` [^natGa-f-MVPIK(Ahx-DOTA)I, metal not drawn] (For-MVPIK([Ahx-DOTA])I-OH), the “Calicum signal (dF/F0)” value (FPR1; [2]) was 0,85 and 0,8 and 0,68, the “Calicum signal (dF/F0)” value (FPR1; [3]) was 0,85 and 0,89 and 0,8 and the “Calicum signal (dF/F0)” value (FPR1; [4]) was 0,66 and 0,52 and 0,6. The “Calicum signal (dF/F0)” value (FPR1; [5]) was 0,74 and 0,87 and 0,65, the “Calicum signal (dF/F0)” value (FPR1; [6]) was 0,12 and 0,27 and 0,23 and the “Calicum signal (dF/F0)” value (FPR1; [7]) was 0,28 and 0,27 and 0,3. The “Calicum signal (dF/F0)” value (FPR1; [8]) was 0,14 and 0,13 and 0,12, the EC50 (FPR1) was 20 ± 1 nM and the EC50 (U87-MG cells) was 29 ± 2.1 nM. The “Calicum signal (dF/F0)” value (U87-MG cells; [2]) was 1,2 and 1,8 and 0,91 and 1,18 and 1,37, the “Calicum signal (dF/F0)” value (U87-MG cells; [3]) was 1,22 and 1,2 (2×) and 0,96 and 1,41 and the “Calicum signal (dF/F0)” value (U87-MG cells; [4]) was 0,77 and 0,6 (2×) and 0,61 and 0,7. The “Calicum signal (dF/F0)” value (U87-MG cells; [5]) was 0,98 and 0,86 and 0,8 and 1,02 and 0,95, the “Calicum signal (dF/F0)” value (U87-MG cells; [6]) was 0,4 and 0,38 and 0,33 and 0,46 and 0,35 and the “Calicum signal (dF/F0)” value (U87-MG cells; [7]) was 0,45 and 0,46 (2×) and 0,65 and 0,58. The “Calicum signal (dF/F0)” value (U87-MG cells; Log Concentration (M) -9,5, single replicate values, listed as f-MVPIK(Ahx-DOTA-Ga)I) was 0,04 and 0,02 (3×) and 0,01 and the “Calicum signal (dF/F0)” value (U87-MG cells; [8]) was 0,11 (2×) and 0,17 and 0,14 and 0,13.
In the case of `CC[C@H](C)[C@H](NC(=O)[C@H](CCCCNC(=O)CCCCCNC(=O)CN1CCN(CC(=O)O)CCN(CC(=O)O)CCN(CC(=O)O)CC1)NC(=O)[C@@H](NC(=O)[C@@H]1CCCN1C(=O)[C@@H](NC(=O)[C@H](CCSC)NC=O)C(C)C)[C@@H](C)CC)C(=O)O` [^natLu-f-MVPIK(Ahx-DOTA)I, metal not drawn] (For-MVPIK([Ahx-DOTA])I-OH), the “Calicum signal (dF/F0)” value (FPR1; [9]) is reported as 0,91 and 0,74 and 0,82, the “Calicum signal (dF/F0)” value (FPR1; [10]) is reported as 0,93 and 0,87 and 0,9 and the “Calicum signal (dF/F0)” value (FPR1; [11]) is reported as 0,7 and 0,5 and 0,6. The “Calicum signal (dF/F0)” value (FPR1; [12]) was 0,89 and 0,6 and 0,71, the “Calicum signal (dF/F0)” value (FPR1; [13]) was 0,31 and 0,28 and 0,34 and the “Calicum signal (dF/F0)” value (FPR1; [14]) was 0,58 and 0,41 and 0,43. For the same molecule, the “Calicum signal (dF/F0)” value (FPR1; [15]) was 0,13 and 0,23 and 0,2, the EC50 (FPR1) was 12 ± 1 nM and the EC50 (U87-MG cells) was 10 ± 0.9 nM. The “Calicum signal (dF/F0)” value (U87-MG cells; [9]) was 1,2 and 1,34 and 1 and 1,14 and 0,83, the “Calicum signal (dF/F0)” value (U87-MG cells; [10]) was 1,39 and 1,4 and 1,3 and 1,55 and 1,9 and the “Calicum signal (dF/F0)” value (U87-MG cells; [11]) was 0,86 and 0,93 and 0,8 and 0,82 and 0,85. For the same molecule, the “Calicum signal (dF/F0)” value (U87-MG cells; [12]) was 0,98 (2×) and 0,94 and 1,8 and 0,96, the “Calicum signal (dF/F0)” value (U87-MG cells; [13]) was 0,62 (3×) and 0,55 and 0,58 and the “Calicum signal (dF/F0)” value (U87-MG cells; [14]) was 0,71 and 0,66 and 0,58 and 0,5 and 0,63. The “Calicum signal (dF/F0)” value (U87-MG cells; Log Concentration (M) -9,5, single replicate values, listed as f-MVPIK(Ahx-DOTA-Lu)I) was 0,06 (2×) and 0,07 and 0,09 and 0,01 and the “Calicum signal (dF/F0)” value (U87-MG cells; [15]) was 0,12 (2×) and 0,21 and 0,14 and 0,18.
With `CC[C@H](C)[C@H](NC(=O)[C@H](CCCCNC(=O)CCCCCNC(=O)CN1CCN(CC(=O)O)CCN(CC(=O)O)CCN(CC(=O)O)CC1)NC(=O)[C@@H](NC(=O)[C@@H]1CCCN1C(=O)[C@@H](NC(=O)[C@H](CCSC)NC=O)C(C)C)[C@@H](C)CC)C(=O)O` [f-MVPIK(Ahx-DOTA)I] (For-MVPIK([Ahx-DOTA])I-OH) the EC50 (FPR1) was 23 ± 2 nM and the EC50 (U87-MG cells) was 5.6 ± 0.9 nM.
With f-MLFKYS the “sensitivity to FPR1 compared with FPR2 (calcium)” value (FPR1; FPR1 vs FPR2) was “very similar sensitivity to FPR1 and FPR2”.
